The text below walks through data of patent US20230286973A1, “PROTEIN SECRETION INHIBITORS” (KEZAR LIFE SCIENCES, priority 2020, published 2023).

Data set [1] deals with PD1-ss+10aa/Gaussia Luciferase. As to the kind of experiment: Dox-Induced PD1-ss-Gluc Assay. The note with it: 24 hr Dox induction; 293FRT/TO cells; read-out: 24 hr Dox Inducible PD1ssGluc 293FRT/TO: Mean IC50. The format is cell-based. An outline of the steps:
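Stable Flp-In 293 T-REx cells carried a doxycycline-inducible construct of Gaussia luciferase fused to the PD1 signal sequence plus 10 amino acids. Cells were plated the day before, then treated with compound dilutions in DMSO/media containing doxycycline at 37 °C, 5% CO2.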

In data set [2] the test system is TNFα-FL/Gaussia Luciferase. As to the kind of experiment: Dox Induced TNFα-FL-Gluc Assay. The data set is classed as cell-based. The note with it: for IC50: 24 hr Dox induction, 293FRT/TO cells, read-out: 24 hr Dox Inducible TNFaFLGluc 293FRT/TO: Mean IC50; for 24 hr Dox Inducible TNFaFLGluc 293FRT/TO: TNF/PD1: ratio of TNFaFLGluc IC50 to PD1ssGluc IC50. The essentials:
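Cell line: stable Flp-In 293 T-REx, TNFα-FL(1-233)-Gaussia luciferase fusion, T-REx-inducible. Plated day -1; compounds in DMSO/media + doxycycline, 37 °C, 5% CO2. Undefined stereocentres = mixture tested.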

Data set [3] deals with HER3-ss+4aa/Gaussia Luciferase. As to the kind of experiment: Dox-Induced Her3-ss-Gluc Assay. The format is cell-based. The following applies: 24 hr Dox induction; 293FRT/TO cells; read-out: 24 hr Dox Inducible Her3(ss + 4)Gluc 293FRT/TO: Mean IC50. An outline of the steps:
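Flp-In 293 T-REx cells, stable HER3-ss+4aa/Gaussia luciferase insert, hygromycin/blasticidin selected; plated day before; compound in DMSO/media + doxycycline; 37° C., 5% CO2.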

The subject of data set [4] is IL-2-FL/Gaussia Luciferase. The experiment in a line: Dox Induced IL2-FL-Gluc Assay. The format is cell-based. The following applies: for IC50: 24 hr Dox induction, 293FRT/TO cells, read-out: 24 hr Dox Inducible IL2FLGluc 293FRT/TO: Mean IC50; for 24 hr Dox Inducible IL2FLGluc 293FRT/TO: IL2/PD1: ratio of IL2FLGluc IC50 to PD1ssGluc IC50. The essentials:
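Stable Flp-In 293 T-REx line, Tet-regulated IL-2 (aa 1-153)–Gaussia luciferase fusion; hygromycin/blasticidin selected. Plated day -1; compound + doxycycline added next day; 37° C, 5% CO2.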

Data set [5] relates to multiple myeloma cell line NCI-H929. The experiment in a line: H929 Cell Viability Assay. The data set is classed as cell-based, human. The following applies: Homo sapiens, NCI-H929, 48 h, NCI-H929 cells, Celltiter-Glo. The essentials:
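Cells in RPMI 1640/10% FBS; compound dilutions in DMSO/media; 48 h, 37° C, 5% CO2; CellTiter-Glo luciferase readout for viability.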

Data set [6] relates to multiple myeloma cell line U266B1. As to the kind of experiment: U266 Cell Viability Assay. The data set is classed as cell-based, human. The note with it: Homo sapiens, U-266, 48 h, U266B1 cells, Celltiter-Glo. An outline of the steps: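 Luminescent ATP read-out (CellTiter-Glo) after 48 h compound exposure at 37° C., 5% CO2; cells maintained in RPMI 1640/10% FBS/2 mM glutamine/pen-strep, compounds diluted in DMSO/media.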

Data set [7] is described as follows: Liver Microsome Stability Assay (rat). The following applies: rat liver microsomes, with NADPH, 1.0 uM compound.
Protocol: (§1) Stability of a compound was assessed in the presence of liver microsomes from various sources—mouse, rat, monkey and human liver microsomes. 1.0 uM compound, 0.4% DMSO in 0.1 M Potassium Phosphate with 1.0 mg/mL liver microsomes, were incubated at 37° C. with or without 1 mM NADPH. The samples were quenched at 0, and 30 minutes.
A short description of data set [8]: Liver Microsome Stability Assay (mouse). The note with it: mouse liver microsomes, with NADPH, 1.0 uM compound.
Protocol: as §1
Data set [9] in a line: Liver Microsome Stability Assay (human). The following applies: human liver microsomes, with NADPH, 1.0 uM compound.
Protocol: as §1
Data set [10] is described as follows: Liver Microsome Stability Assay (monkey). The note with it: monkey liver microsomes, with NADPH, 1.0 uM compound.
Protocol: as §1

Consider `NC(=O)N1CCC(Oc2ccc(N3CCC[C@@H]3c3csc(NC(=O)c4cccn4Cc4ccnc(F)c4)n3)cc2)CC1` [Compound A135, (R)-4-(4-(2-(2-(1-((2-fluoropyridin-4-yl)methyl)-1H-pyrrole-2-carboxamido)thiazol-4-yl)pyrrolidin-1-yl)phenoxy)piperidine-1-carboxamide], for which the IC50 was determined as 15.2 nM in data set [1], 512 nM in [2], 34.2 nM in data set [3] and 52.5 nM in data set [4]. The “24 hr Dox Inducible TNFaFLGluc 293FRT/TO: TNF/PD1” value in [2] was determined as 33.6. Besides, the “24 hr Dox Inducible IL2FLGluc 293FRT/TO: IL2/PD1” value in data set [4] came out at 3.4. In addition, the EC50 was 692 nM in data set [5] and more than 25000 nM in data set [6]. In addition, the “Liver Microsome Stability (Multiple Species): Rat - % Remaining after 30 min w/NADPH” value in data set [7] came out at 57.9%. Further, the “Liver Microsome Stability (Multiple Species): Mouse - % Remaining after 30 min w/NADPH” value in data set [8] came out at 56.5%. In addition, the “Liver Microsome Stability (Multiple Species): Human - % Remaining after 30 min w/NADPH” value in data set [9] is given as 67.1%. For the same compound, the “Liver Microsome Stability (Multiple Species): Monkey - % Remaining after 30 min w/NADPH” value in data set [10] is reported as 32.1%.
In the case of `CNC(=O)N1CCC(Oc2ccc(N3CCC[C@@H]3c3csc(NC(=O)c4cccn4Cc4ccnc(F)c4)n3)cc2)CC1` [Compound A136, (R)-4-(4-(2-(2-(1-((2-fluoropyridin-4-yl)methyl)-1H-pyrrole-2-carboxamido)thiazol-4-yl)pyrrolidin-1-yl)phenoxy)-N-methylpiperidine-1-carboxamide], the IC50 in data set [1] was 59.6 nM; in data set [2], 1010 nM; in [3] it was 86.7 nM; in data set [4] it was 186 nM. In data set [2], the “24 hr Dox Inducible TNFaFLGluc 293FRT/TO: TNF/PD1” value came to 16.9. The “24 hr Dox Inducible IL2FLGluc 293FRT/TO: IL2/PD1” value in data set [4] turned out to be 3.1. Further, the EC50 in data set [5] was 2410 nM; in data set [6] it was more than 25000 nM. The “Liver Microsome Stability (Multiple Species): Rat - % Remaining after 30 min w/NADPH” value in data set [7] is listed as 15.7%. In data set [8], the “Liver Microsome Stability (Multiple Species): Mouse - % Remaining after 30 min w/NADPH” value is 2.63%. Further, the “Liver Microsome Stability (Multiple Species): Human - % Remaining after 30 min w/NADPH” value in [9] came out at 15.6%. In addition, in [10], the “Liver Microsome Stability (Multiple Species): Monkey - % Remaining after 30 min w/NADPH” value was determined as 0.44%.
For `CN(C)C(=O)N1CCC(Oc2ccc(N3CCC[C@@H]3c3csc(NC(=O)c4cccn4Cc4ccnc(F)c4)n3)cc2)CC1` [Compound A137, (R)-4-(4-(2-(2-(1-((2-fluoropyridin-4-yl)methyl)-1H-pyrrole-2-carboxamido)thiazol-4-yl)pyrrolidin-1-yl)phenoxy)-N,N-dimethylpiperidine-1-carboxamide], the IC50 in data set [1] amounted to 32.2 nM; in [2], 566 nM; in data set [3], 51.5 nM; in data set [4], 61.4 nM. Further, in data set [2], the “24 hr Dox Inducible TNFaFLGluc 293FRT/TO: TNF/PD1” value amounted to 17.6. Besides, the “24 hr Dox Inducible IL2FLGluc 293FRT/TO: IL2/PD1” value in [4] is listed as 1.9. Further, the EC50 in data set [5] was 948 nM; in [6] it was more than 25000 nM. Besides, the “Liver Microsome Stability (Multiple Species): Rat - % Remaining after 30 min w/NADPH” value in data set [7] was 24.2%. Further, in data set [8], the “Liver Microsome Stability (Multiple Species): Mouse - % Remaining after 30 min w/NADPH” value is reported as 1.78%. Further, the “Liver Microsome Stability (Multiple Species): Human - % Remaining after 30 min w/NADPH” value in [9] is on record as 4.35%. For the same compound, in data set [10], the “Liver Microsome Stability (Multiple Species): Monkey - % Remaining after 30 min w/NADPH” value worked out at 2.57%.
Consider `O=C(Nc1nc([C@H]2CCCN2c2ccc(OC3CCS(=O)(=O)CC3)cc2)cs1)c1cccn1Cc1ccnc(F)c1` [Compound A138, (R)-N-(4-(1-(4-((1,1-dioxidotetrahydro-2H-thiopyran-4-yl)oxy)phenyl)pyrrolidin-2-yl)thiazol-2-yl)-1-((2-fluoropyridin-4-yl)methyl)-1H-pyrrole-2-carboxamide], for which the IC50 was 125 nM in [1], 1600 nM in data set [2], 167 nM in data set [3] and 172 nM in data set [4]. The “24 hr Dox Inducible TNFaFLGluc 293FRT/TO: TNF/PD1” value in data set [2] was determined as 12.8. The “24 hr Dox Inducible IL2FLGluc 293FRT/TO: IL2/PD1” value in data set [4] is given as 1.4. For the same compound, the EC50 in data set [5] is 2570 nM; in [6], more than 25000 nM. Also, the “Liver Microsome Stability (Multiple Species): Rat - % Remaining after 30 min w/NADPH” value in data set [7] came out at 37.2%. For the same compound, in data set [8], the “Liver Microsome Stability (Multiple Species): Mouse - % Remaining after 30 min w/NADPH” value is recorded as 25.2%. For the same compound, the “Liver Microsome Stability (Multiple Species): Human - % Remaining after 30 min w/NADPH” value in [9] was 25.1%. Moreover, in [10], the “Liver Microsome Stability (Multiple Species): Monkey - % Remaining after 30 min w/NADPH” value amounted to 6.25%.
Turning to `O=C(Nc1nc([C@H]2CCCN2c2ccc(OC3CCN(C(=O)CO)CC3)cc2)cs1)c1cccn1Cc1ccnc(F)c1` [Compound A139, (R)-1-((2-fluoropyridin-4-yl)methyl)-N-(4-(1-(4-((1-(2-hydroxyacetyl)piperidin-4-yl)oxy)phenyl)pyrrolidin-2-yl)thiazol-2-yl)-1H-pyrrole-2-carboxamide], the IC50 is 20.3 nM in [1], 460 nM in data set [2], 37.1 nM in data set [3] and 58.3 nM in data set [4]. In [2], the “24 hr Dox Inducible TNFaFLGluc 293FRT/TO: TNF/PD1” value came to 22.6. Moreover, the “24 hr Dox Inducible IL2FLGluc 293FRT/TO: IL2/PD1” value in [4] came to 2.9. Besides, the EC50 is 687 nM in [5] and more than 25000 nM in data set [6]. The “Liver Microsome Stability (Multiple Species): Rat - % Remaining after 30 min w/NADPH” value in data set [7] was found to be 41.9%. The “Liver Microsome Stability (Multiple Species): Mouse - % Remaining after 30 min w/NADPH” value in data set [8] is 26%. In data set [9], the “Liver Microsome Stability (Multiple Species): Human - % Remaining after 30 min w/NADPH” value was determined as 30.1%. Besides, the “Liver Microsome Stability (Multiple Species): Monkey - % Remaining after 30 min w/NADPH” value in [10] is listed as 10.7%.
With `CC(=O)N1CCC(Oc2ccc(N3CCC[C@@H]3c3csc(NC(=O)c4cccn4Cc4ccnc(F)c4)n3)cc2Cl)CC1` [Compound A140, (R)-N-(4-(1-(4-((1-acetylpiperidin-4-yl)oxy)-3-chlorophenyl)pyrrolidin-2-yl)thiazol-2-yl)-1-((2-fluoropyridin-4-yl)methyl)-1H-pyrrole-2-carboxamide], the IC50 in data set [1] was found to be 13.9 nM; in data set [2], 361 nM; in data set [3], 9.88 nM; in [4] it was 33.7 nM. Besides, the “24 hr Dox Inducible TNFaFLGluc 293FRT/TO: TNF/PD1” value in data set [2] was found to be 25.9. In [4], the “24 hr Dox Inducible IL2FLGluc 293FRT/TO: IL2/PD1” value was 2.4. Moreover, the EC50 in data set [5] was 418 nM; in [6], more than 25000 nM. Besides, the “Liver Microsome Stability (Multiple Species): Rat - % Remaining after 30 min w/NADPH” value in data set [7] came out at 12.8%. Besides, the “Liver Microsome Stability (Multiple Species): Mouse - % Remaining after 30 min w/NADPH” value in data set [8] amounted to 16.1%. Also, the “Liver Microsome Stability (Multiple Species): Human - % Remaining after 30 min w/NADPH” value in data set [9] is listed as 14%. For the same compound, the “Liver Microsome Stability (Multiple Species): Monkey - % Remaining after 30 min w/NADPH” value in data set [10] is 8.54%.
With `O=C(CO)Nc1ccc(N2CCC[C@@H]2c2csc(NC(=O)c3cccn3Cc3ccnc(F)c3)n2)cc1` [Compound A141, (R)-1-((2-fluoropyridin-4-yl)methyl)-N-(4-(1-(4-(2-hydroxyacetamido)phenyl)pyrrolidin-2-yl)thiazol-2-yl)-1H-pyrrole-2-carboxamide], the IC50 in data set [1] is 27.5 nM; in data set [2], 497 nM; in data set [3] it was 43.9 nM; in data set [4], 54 nM. Further, the “24 hr Dox Inducible TNFaFLGluc 293FRT/TO: TNF/PD1” value in data set [2] is reported as 18. Further, the “24 hr Dox Inducible IL2FLGluc 293FRT/TO: IL2/PD1” value in [4] is 2. Further, the figures for the EC50 in [5] and in data set [6] were 921 nM and more than 25000 nM, respectively. Moreover, the “Liver Microsome Stability (Multiple Species): Rat - % Remaining after 30 min w/NADPH” value in [7] is 2.9%. Further, in data set [8], the “Liver Microsome Stability (Multiple Species): Mouse - % Remaining after 30 min w/NADPH” value is listed as 0.97%. Moreover, in data set [9], the “Liver Microsome Stability (Multiple Species): Human - % Remaining after 30 min w/NADPH” value amounted to 2.77%. Moreover, the “Liver Microsome Stability (Multiple Species): Monkey - % Remaining after 30 min w/NADPH” value in data set [10] worked out at 0.94%.
